Experimental data from US11407740B2 (priority 2018, dated 2022).
Converted amounts (≈) assume the structure as drawn.

test system: E. coli; assay: Bacterial susceptibility testing, MIC by broth microdilution (CLSI); conditions: Escherichia coli, read-out: E. coli MIC, broth microdilution, 35° C., 18-24 h

| Compound | MIC |
| --- | --- |
| O=c1[nH]cnc(CC(CO)c2ccc(C#Cc3ccc(CN[C@H]4CCOC4)cc3)cc2)c1O (mixture of isomers) [Compound 8] | < 1 µg/mL |
| O=c1[nH]cnc(CC(CO)c2ccc(C#Cc3ccc(CN[C@@H]4CCOC4)cc3)cc2)c1O (mixture of isomers) [Compound 11] | < 1 µg/mL |
| O=C(NCCF)C(Cc1nc[nH]c(=O)c1O)c1ccc(C#Cc2ccc(CN[C@H]3CCOC3)cc2)cc1 (mixture of isomers) [Compound 30] | 1 to 8 µg/mL |
| CC(CO)(Cc1nc[nH]c(=O)c1O)c1ccc(C#Cc2ccc(CN[C@H]3CCOC3)cc2)cc1 (mixture of isomers) [Compound 32] | < 1 µg/mL |
| O=c1[nH]cnc(CC(CO)c2ccc(C#Cc3ccc(CCN[C@H]4CCOC4)cc3)cc2)c1O (mixture of isomers) [Compound 43] | < 1 µg/mL |
| O=C(CO)N1CC[C@@H](NCc2ccc(C#Cc3ccc(C(CO)Cc4nc[nH]c(=O)c4O)cc3)cc2)C1 (mixture of isomers) [Compound 44] | < 1 µg/mL |
| O=c1[nH]cnc(CC(CO)c2ccc(C#Cc3ccc(CN[C@@H]4CCNC4)cc3)cc2)c1O (mixture of isomers) [Compound 62] | 1 to 8 µg/mL |
| COC1CN(Cc2ccc(C#Cc3ccc(C(CN[C@@H](C)CF)Cc4nc[nH]c(=O)c4O)cc3)cc2)C1 (mixture of isomers) [Compound 66] | < 1 µg/mL |
| C[C@@H](CF)NCC(Cc1nc[nH]c(=O)c1O)c1ccc(C#Cc2ccc(CN3CC4COCC4C3)cc2)cc1 (mixture of isomers) [Compound 84] | < 1 µg/mL |
| CO[C@@H]1CCN(Cc2ccc(C#Cc3ccc(C(CN[C@@H](C)CF)Cc4nc[nH]c(=O)c4O)cc3)cc2)C1 (mixture of isomers) [Compound 86] | < 1 µg/mL |
| CO[C@H]1CCN(Cc2ccc(C#Cc3ccc(C(CN[C@@H](C)CF)Cc4nc[nH]c(=O)c4O)cc3)cc2)C1 (mixture of isomers) [Compound 89] | < 1 µg/mL |
| C[C@@H](CF)NCC(Cc1nc[nH]c(=O)c1O)c1ccc(C#Cc2ccc(CN3CC[C@@H](C#N)C3)cc2)cc1 (mixture of isomers) [Compound 91] | < 1 µg/mL |
| C[C@@H](CF)NCC(Cc1nc[nH]c(=O)c1O)c1ccc(C#Cc2ccc(CN3CC[C@H](C#N)C3)cc2)cc1 (mixture of isomers) [Compound 92] | < 1 µg/mL |
| C[C@@H](CF)NCC(Cc1nc[nH]c(=O)c1O)c1ccc(C#Cc2ccc(CNC3COC3)cc2)cc1 (mixture of isomers) [Compound 94] | < 1 µg/mL |
| C[C@@H](CF)NCC(Cc1nc[nH]c(=O)c1O)c1ccc(C#Cc2ccc(CN3CC(CC#N)C3)cc2)cc1 (mixture of isomers) [Compound 95] | < 1 µg/mL |
| C[C@@H](CF)NCC(Cc1nc[nH]c(=O)c1O)c1ccc(C#Cc2ccc(CN[C@@H]3CCOC3)cc2)cc1 (mixture of isomers) [Compound 108] | < 1 µg/mL |
| C[C@@H](CF)NCC(Cc1nc[nH]c(=O)c1O)c1ccc(C#Cc2ccc(CN[C@H]3CCOC3)cc2)cc1 (mixture of isomers) [Compound 110] | < 1 µg/mL |
| N#C[C@H]1CCN(Cc2ccc(C#Cc3ccc(C(CNCC(F)F)Cc4nc[nH]c(=O)c4O)cc3)cc2)C1 (mixture of isomers) [Compound 123] | < 1 µg/mL |
| C[C@@H](CF)NCC(Cc1nc[nH]c(=O)c1O)c1ccc(C#Cc2ccc(CN3CC4(COC4)C3)cc2)cc1 (mixture of isomers) [Compound 124] | 1 to 8 µg/mL |
| CO[C@@H]1CCN(Cc2ccc(C#Cc3ccc(C(CNCC(C)Cl)Cc4nc[nH]c(=O)c4O)cc3)cc2)C1 (mixture of isomers) [Compound 125] | 1 to 8 µg/mL |
| C[C@@H](CF)NCC(Cc1nc[nH]c(=O)c1O)c1ccc(C#Cc2ccc(CN3CC(C4COC4)C3)cc2)cc1 (mixture of isomers) [Compound 126] | 1 to 8 µg/mL |
| C[C@@H](CF)NCC(Cc1nc[nH]c(=O)c1O)c1ccc(C#Cc2ccc(CN3CC4(CCOC4)C3)cc2)cc1 (mixture of isomers) [Compound 127] | 1 to 8 µg/mL |
| C[C@@H](CF)NCC(Cc1nc[nH]c(=O)c1O)c1ccc(C#Cc2ccc(CN3CC4(CCO4)C3)cc2)cc1 (mixture of isomers) [Compound 132] | < 1 µg/mL |
| COC1CN(Cc2ccc(C#Cc3ccc(C(C)(CN[C@@H](C)CF)Cc4nc[nH]c(=O)c4O)cc3)cc2)C1 (mixture of isomers) [Compound 143] | < 1 µg/mL |
| C[C@@H](CO)NCC(Cc1nc[nH]c(=O)c1O)c1ccc(C#Cc2ccc(CN[C@H]3CCOC3)cc2)cc1 (mixture of isomers) [Compound 144] | 1 to 8 µg/mL |

| Compound | MIC |
| --- | --- |
| NC[C@@H]1CCCN1Cc1ccc(C#Cc2ccc(C(CO)Cc3nc[nH]c(=O)c3O)cc2)cc1 (mixture of isomers) [Compound 145] | 1 to 8 µg/mL |
| NC[C@H]1CCCN1Cc1ccc(C#Cc2ccc(C(CO)Cc3nc[nH]c(=O)c3O)cc2)cc1 (mixture of isomers) [Compound 148] | 1 to 8 µg/mL |
| N=[S@]1(=O)CC[C@@H](NCc2ccc(C#Cc3ccc(C(CO)Cc4nc[nH]c(=O)c4O)cc3)cc2)C1 (mixture of isomers) [Compound 150] | 1 to 8 µg/mL |
| N=[S@@]1(=O)CC[C@H](NCc2ccc(C#Cc3ccc(C(CO)Cc4nc[nH]c(=O)c4O)cc3)cc2)C1 (mixture of isomers) [Compound 151] | 1 to 8 µg/mL |
| O=C(CO)N(Cc1ccc(C#Cc2ccc(C(CO)Cc3nc[nH]c(=O)c3O)cc2)cc1)[C@@H]1CCNC1 (mixture of isomers) [Compound 154] | 8 to 32 µg/mL |
| O=c1[nH]cnc(CC(CO)c2ccc(C#Cc3ccc(CN[C@@H]4CCN(CCO)C4)cc3)cc2)c1O (mixture of isomers) [Compound 155] | 1 to 8 µg/mL |
| O=C(O)CN1CC[C@@H](NCc2ccc(C#Cc3ccc(C(CO)Cc4nc[nH]c(=O)c4O)cc3)cc2)C1 (mixture of isomers) [Compound 156] | > 32 µg/mL |
| O=C(CO)NC[C@@H]1CCCN1Cc1ccc(C#Cc2ccc(C(CO)Cc3nc[nH]c(=O)c3O)cc2)cc1 (mixture of isomers) [Compound 158] | 1 to 8 µg/mL |
| O=c1[nH]cnc(CC(CN[C@H]2CCOC2)c2ccc(C#Cc3ccc(CN4CCOCC4)cc3)cc2)c1O (mixture of isomers) [Compound 166] | < 1 µg/mL |
| C[C@@H](CO)NCC(Cc1nc[nH]c(=O)c1O)c1ccc(C#Cc2ccc(CN3CCOCC3)cc2)cc1 (mixture of isomers) [Compound 167] | < 1 µg/mL |
| NC(Cc1nc[nH]c(=O)c1O)c1ccc(C#Cc2ccc(CN[C@@H]3CCOC3)cc2)cc1 (mixture of isomers) [Compound 173] | < 1 µg/mL |
| O=c1[nH]cnc(CC(CO)c2ccc(/C=C/c3ccc(CN[C@H]4CCOC4)cc3)cc2)c1O (mixture of isomers) [Compound 198] | 8 to 32 µg/mL |
| CC(=O)N1CC[C@@H](NCc2ccc(C#Cc3ccc(C(CO)Cc4nc[nH]c(=O)c4O)cc3)cc2)C1 (mixture of isomers) [Compound 232] | < 1 µg/mL |
| O=C(N[C@@H]1CCN(Cc2ccc(C#Cc3ccc(C(CO)Cc4nc[nH]c(=O)c4O)cc3)cc2)C1)C1CC1 (mixture of isomers) [Compound 256] | < 1 µg/mL |
| O=C(CO)N[C@@H]1CCN(Cc2ccc(C#Cc3ccc(C(CO)Cc4nc[nH]c(=O)c4O)cc3)cc2)C1 (mixture of isomers) [Compound 257] | 1 to 8 µg/mL |
| CN(Cc1ccc(C#Cc2ccc(C(CO)Cc3nc[nH]c(=O)c3O)cc2)cc1)[C@@H]1CCNC1 (mixture of isomers) [Compound 260] | 1 to 8 µg/mL |
| CN1CC[C@@H](NCc2ccc(C#Cc3ccc(C(CO)Cc4nc[nH]c(=O)c4O)cc3)cc2)C1 (mixture of isomers) [Compound 261] | 1 to 8 µg/mL |
| NCC(=O)N1CC[C@@H](NCc2ccc(C#Cc3ccc(C(CO)Cc4nc[nH]c(=O)c4O)cc3)cc2)C1 (mixture of isomers) [Compound 262] | 8 to 32 µg/mL |
| CNC(Cc1nc[nH]c(=O)c1O)c1ccc(C#Cc2ccc(CN[C@@H]3CCOC3)cc2)cc1 (mixture of isomers) [Compound 265] | < 1 µg/mL |
| O=c1[nH]cnc(CC(O)c2ccc(C#Cc3ccc(CN[C@@H]4CCOC4)cc3)cc2)c1O (mixture of isomers) [Compound 271] | < 1 µg/mL |
| N[C@@H]1CCN(Cc2ccc(C#Cc3ccc(C(CO)Cc4nc[nH]c(=O)c4O)cc3)cc2)C1 (mixture of isomers) [Compound 292] | 1 to 8 µg/mL |
| C[C@@H](CF)NCC(Cc1nc[nH]c(=O)c1O)c1ccc(C#Cc2ccc(CCN3CCOCC3)cc2)cc1 (mixture of isomers) [Compound 294] | < 1 µg/mL |
| O=c1[nH]cnc(CC(CO)c2ccc(C#Cc3ccc(CN[C@H]4CCS(=O)(=O)C4)cc3)cc2)c1O (single isomer, unassigned) [Compound 39] | < 1 µg/mL |
| O=c1[nH]cnc(CC(CO)c2ccc(C#Cc3ccc(CN[C@@H]4CCS(=O)(=O)C4)cc3)cc2)c1O (single isomer, unassigned) [Compound 40] | 1 to 8 µg/mL (≈ 2.03 to 16.2 µM) |
| COC1CN(Cc2ccc(C#Cc3ccc(C(CN[C@H](C)CF)Cc4nc[nH]c(=O)c4O)cc3)cc2)C1 (single isomer, unassigned) [Compound 69] | < 1 µg/mL |

same assay, conditions: broth microdilution, 35° C., 18-24 h

| Compound | E. coli MIC |
| --- | --- |
| CO[C@@H]1CCN(Cc2ccc(C#Cc3ccc(C(CNCC(C)F)Cc4nc[nH]c(=O)c4O)cc3)cc2)C1 (mixture of isomers) [Compound 135] | B (B: >1 μg/mL to ≤8.0 μg/mL) |
| O=c1[nH]cnc(CC(CO)c2ccc(C#Cc3ccc(CN[C@H]4CCOC4)cc3)cc2)c1O (single isomer, unassigned) [Compound 9] | B (B: >1 μg/mL to ≤8.0 μg/mL) |
| O=c1[nH]cnc(CC(CO)c2ccc(C#Cc3ccc(CN[C@H]4CCOC4)cc3)cc2)c1O (single isomer, unassigned) [Compound 10] | A (A: ≤1 μg/mL) |
| O=C(CO)N1CC[C@@H](NCc2ccc(C#Cc3ccc(C(CO)Cc4nc[nH]c(=O)c4O)cc3)cc2)C1 (single isomer, unassigned) [Compound 45] | B (B: >1 μg/mL to ≤8.0 μg/mL) |
| O=C(CO)N1CC[C@@H](NCc2ccc(C#Cc3ccc(C(CO)Cc4nc[nH]c(=O)c4O)cc3)cc2)C1 (single isomer, unassigned) [Compound 46] | A (A: ≤1 μg/mL) |
| CO[C@@H]1CCN(Cc2ccc(C#Cc3ccc(C(CN[C@@H](C)CF)Cc4nc[nH]c(=O)c4O)cc3)cc2)C1 (single isomer, unassigned) [Compound 87] | B (B: >1 μg/mL to ≤8.0 μg/mL) |
